Values joined by “and” are separate entries in the source; they are usually repeats but may differ in a detail not shown here. Equal entries are not always repeated.
What was measured:
Assay type in all cases: toxicity, cell-based
[1] = system: HEK-293T; assay: Incucyte cell viability with HEK293T; details: human, 24 h, 10 µM, compound concentration 10 uM
[2] = system: Fibroblast; assay: Incucyte cell viability with human fibroblast; details: 24 h, 10 µM, compound concentration 10 uM
[3] = system: U2OS; assay: Incucyte cell viability with U2OS; details: human, 24 h, 10 µM, compound concentration 10 uM
Note: unitless GR value; below 1 slowed growth and below 0 cell loss.

Structure (SMILES)	Growth Rate ([1]; replicate number 1)	Growth Rate ([1]; replicate number 2)	Growth Rate ([2]; replicate number 1)	Growth Rate ([2]; replicate number 2)	Growth Rate ([3]; replicate number 1)	Growth Rate ([3]; replicate number 2)
CCN(CC)S(=O)(=O)c1cc(Nc2nccc(-c3ccnc(-c4ccc(NC(=O)NC)cc4)c3)n2)ccc1Cl	-0.42	-0.23	0.14	-0.71	-0.05	0.12
CC(C)N(CCCNC(=O)Nc1ccc(C(C)(C)C)cc1)C[C@H]1O[C@@H](n2ccc3c(N)ncnc32)[C@H](O)[C@@H]1O	0.74	0.84	1	–	1	0.59
CCNC(=O)NCCSC[C@H]1O[C@@H](n2cnc3c(N)ncnc32)[C@H](O)[C@@H]1O	0.71	0.87	0.65	0	1	0.72
CCN(c1cc(C#CCN2CCOCC2)cc(C(=O)NCc2c(C)cc(C)[nH]c2=O)c1C)[C@H]1CC[C@H](N(C)CCOC)CC1	0.57	0.74	1	–	1	0.81
CCCOc1ccc(CCc2nc3cc(-c4c(C)noc4C)ccc3n2CCN2CCOCC2)cc1	0.54	0.57	1	0.67	0.57	0.8
Cc1ccc(C(=O)NCCCCCC(=O)Nc2ccccc2N)cc1	1	–	–	–	–	0.95 and 0.84
O=C(NC[C@H](O)CN1CCc2ccccc2C1)c1cc(NC2COC2)ncn1	0.54	0.94	1	0.5	1	–
CS(=O)(=O)c1ccc(-c2cnc(NCc3ccco3)n3cnnc23)cc1	0.63	0.95	1	0.87	1	0.66
CC(=O)N1CCc2c(c(N3CCCc4cc(-c5cnn(C)c5)c(C(F)F)cc43)nn2C2CCOCC2)C1	0.61	0.51	0.79	1	1	0.89
CNC(=O)N1CCc2c(c(N3CCCc4cc(-c5cnn(C)c5)c(C(F)F)cc43)nn2C2CCOCC2)C1	0.56	0.52	1	0.36	0.76	1
Cc1ncsc1-c1ccc(CNC(=O)[C@@H]2C[C@@H](O)CN2C(=O)[C@@H](NC(=O)COCCOCCOCCNC(=O)C[C@@H]2N=C(c3ccc(Cl)cc3)c3c(sc(C)c3C)-n3c(C)nnc32)C(C)(C)C)cc1	0.01	0.16	0.23	-0.26	-0.19	0.31
C[C@H](CN[C@@H](C(=O)Nc1ccc(-c2cnn(C)c2)cn1)c1ccccc1)c1ccc(C#N)cc1	0.04	0.3	0.34	-0.53	0.58	0.39
CCCOc1cccc(Oc2cc3c(cc2NS(=O)(=O)c2cccc(C(=O)NCCOCCOCCOCC(=O)N[C@H](C(=O)N4C[C@H](O)C[C@H]4C(=O)NCc4ccc(-c5scnc5C)cc4)C(C)(C)C)c2)n(C)c(=O)n3C)c1	0.11	0.31	1	–	0.91	0.63
Cc1ncsc1-c1ccc(CNC(=O)[C@@H]2C[C@@H](O)CN2C(=O)[C@@H](NC(=O)COCC(C)(COCCOCCOCCNC(=O)C[C@@H]2N=C(c3ccc(Cl)cc3)c3c(sc(C)c3C)-n3c(C)nnc32)COCCOCCOCCNC(=O)C[C@@H]2N=C(c3ccc(Cl)cc3)c3c(sc(C)c3C)-n3c(C)nnc32)C(C)(C)C)cc1	1	–	1	–	0.43	0.95

From ChEMBL document CHEMBL5724709, “EUbOPEN Chemogenomics Library - IncuCyte” (2024)
